Measurements reported in US8557298B2, “Medicaments for chemotherapeutic treatment of disease” (Provectus Pharmatech, Inc., priority 1998, dated 2013).

Key:
[1] = Partition coefficient Kp (n-octanol / phosphate buffered saline); assay type: physicochemical; conditions: n-octanol vs phosphate buffered saline, PBS, pH = 7.4
Procedure: For example, to a first approximation, an agent's potential for tissue accumulation can be estimated based on the partition coefficient, Kp. This in vitro parameter is purported to have predictive value relating to in vivo agent delivery at the cellular level. […] Kp is determined by measuring the ratio of equilibrium concentrations of an agent in a lipophilic phase (n-octanol) contacted with an aqueous phase (phosphate buffered saline, PBS, pH=7.4).

[2] = Toxicology data (LD50), murine administration; assay type: in vivo; conditions: for LD50 p.o.: murine oral (p.o.) administration
[3] = Tissue pharmacokinetics of Rose Bengal after intraperitoneal injection into tumor-bearing nude mice; assay type: in vivo
Procedure: Tissue samples (liver, abdominal wall, and tumor) were immediately obtained from the sacrificed mice, homogenized, centrifuged for 10 minutes at 1520×g, and the resulting supernatant collected and analyzed fluorimetrically. […] At the same time, persistent accumulation occurs in tumor tissue, with greater than 50% of maximum measured agent concentration maintained in such tissues for periods in excess of 24 hours.

[4] = tested on: BNL/SV40 liver cell tumor; assay: Intratumoral/peritumoral injection of 10% Rose Bengal into BNL/SV40 liver cell tumors in nude mice; assay type: in vivo, nude mice
[5] = tested on: recurrent aggressive sarcoma tumor; assay: Intratumoral injection of 10% Rose Bengal into naturally-occurring sarcoma in a dog; assay type: in vivo
[6] = tested on: Staphylococcus aureus; assay type: cell-based
Procedure: The inventors tested this hypothesis by evaluating the chemotherapeutic properties of Rose Bengal and Erythrosin B on cultures of the bacterium Staphylococcus aureus. […] In both illustrations, test cultures were exposed to the indicated agents at the indicated concentrations for the indicated times; cytotoxicity was subsequently estimated by serial dilution (10×dilution per step) of the treated cell cultures into 96-well plates containing fresh culture media; these samples were then incubated under standard conditions. Viability (e.g., Logs of Growth) for each test culture was then estimated by counting the number of dilution steps resulting in positive cell growth. Cytotoxicity upon exposure to a particular agent is thereby estimated by the reduction in viability relative to unexposed (e.g., control) cultures.

[7] = Systemic administration of Rose Bengal to obese laboratory mice, tissue accumulation; assay type: in vivo; conditions: aqueous solution, i.p. or p.o.
Text: For example, Rose Bengal's relatively large partition coefficient is indicative of a preference for accumulation in lipophilic tissue, such as cutaneous lipocytes.

[8] = tested on: various murine tumors; conditions: within 24 hours
[9] = murine intravenous (i.v.) administration

| Structure (SMILES) | Partition coefficient, Kp [1] | LD50 i.v. [2, 9] | LD50 p.o. [2] | Cytotoxic effect (reduction in viability, Logs of Growth) [6] | further results |
| --- | --- | --- | --- | --- | --- |
| O=C([O-])c1c(Cl)c(Cl)c(Cl)c(Cl)c1-c1c2cc(Br)c(=O)c(Br)c-2oc2c(Br)c([O-])c(Br)cc12.[Na+].[Na+] [Phloxine B] | 1.1 | 310 mg/kg | 310 mg/kg | – | – |
| O=C1OC2(c3cc(I)c(O)c(I)c3Oc3c2cc(I)c(O)c3I)c2c(Cl)c(Cl)c(Cl)c(Cl)c21 [Rose Bengal, 4,5,6,7-Tetrachloro-2′,4′,5′,7′-tetraiodofluorescein] | 11.5 | – | >1,000 mg/kg | marked chemotherapeutic response that is concentration dependent | Time for concentrations in normal tissue (abdominal wall) and liver to diminish to unmeasurable levels ([3]; i.p., 50-100 μL of 0.5% Rose Bengal in saline, tumor-bearing nude mice): ≤ 24 h; Share of maximum measured agent concentration maintained in tumor tissue ([3]; tumor tissue, periods in excess of 24 hours after i.p. injection): greater than 50%; Effect on tumor growth ([4]; i.t. and p.t. injection of 10% Rose Bengal, over a period of several weeks): stasis, with no significant change in tumor volume; Time to clearance from normal tissue (tumor tissue remained stained) ([4]; mouse, in vivo): ≤ 7 days; Effect on normal tissue and adjacent tumor tissue ([4]; peritumoral injection alone): no significant effect on normal tissue, nor on the adjacent tumor tissue; Retention in normal tissue ([4]; peritumoral injection alone, after 24 hours): no detectable retention in normal tissue; Tumor response at follow-up examination ([5]; after 19 days): further measurable decrease in tumor size; Tumor response at follow-up examination ([5]; approximately 5 cc of 10% solution into approximately 20 cc tumor, after five days): measurable decrease in tumor density along with significant edema and apparent necrosis of large sections of the tumor; Side-effects in healthy tissue surrounding the tumor ([5]; intratumoral injection, dog): no significant side-effects; Tissue accumulation after systemic administration [7]: highly selective accumulation of said agent in certain tissues |
| CC1(C)C(/C=C/C=C/C=C/C=C2\N(CCCCS(=O)(=O)O)c3ccc4ccccc4c3C2(C)C)=[N+](CCCCS(=O)(=O)[O-])c2ccc3ccccc3c21 [Indocyanine Green, reference compound] | – | – | – | – | LD50 ([2]; mouse, in vivo, murine intravenous (i.v.) administration): 60 mg/kg; Tumor retention after i.t. administration [8]: substantively migrates out of tumors |
| O.O=C([O-])c1ccccc1-c1c2cc(I)c(=O)c(I)c-2oc2c(I)c([O-])c(I)cc12.[Na+].[Na+] [Erythrosin B] | 1.9 | 370 mg/kg | >1,000 mg/kg | no significant chemotherapeutic response | – |
| CC1=C(CCC(=O)O)c2cc3[nH]c(cc4nc(cc5[nH]c(cc1n2)c(C)c5C(C)O)C(C)=C4C(C)O)c(C)c3CCC(=O)O (stereo not drawn) [Porphyrin HpIX, reference compound] | 1.5 | – | >1,000 mg/kg | – | – |
